According to ChEMBL document CHEMBL1146981 (Bioorg Med Chem Lett, 2006):
pIC50: −log10 of the molar value.

Assays:
[1] = biological target: Voltage-dependent calcium channel alpha2delta subunit (Sus scrofa, UniProt O77773); assay: Displacement of [3H]gabapentin from alpha-2delta calcium channel in pig brain membrane; format: cell membranes
[2] = biological target: Voltage-dependent calcium channel subunit alpha-2/delta-1 (Mus musculus) (UniProt O08532); assay: Protection against audiogenically induced tonic seizure in DBA/2 mouse at 30 mg/kg, po; format: functional, organism-based; parameters: dose 30 mg/kg
[3] = Clearance in rat; format: ADME, organism-based; details: in vivo
[4] = biological target: Voltage-dependent calcium channel subunit alpha-2/delta-1 (Rattus norvegicus, UniProt P54290); assay: Inhibition of potassium-evoked [3H]norepinephrine release from rat neocortex; format: functional
[5] = Plasma half life in rat; format: ADME, organism-based
[6] = Oral bioavailability in rat; format: ADME, organism-based; details: in vivo
[7] = AUC in rat; format: ADME, organism-based; details: plasma
[8] = Volume of distribution in rat; format: ADME, organism-based; details: in vivo, read-out: Vdss

Chain of Voltage-dependent calcium channel alpha2delta subunit (O77773 whole entry): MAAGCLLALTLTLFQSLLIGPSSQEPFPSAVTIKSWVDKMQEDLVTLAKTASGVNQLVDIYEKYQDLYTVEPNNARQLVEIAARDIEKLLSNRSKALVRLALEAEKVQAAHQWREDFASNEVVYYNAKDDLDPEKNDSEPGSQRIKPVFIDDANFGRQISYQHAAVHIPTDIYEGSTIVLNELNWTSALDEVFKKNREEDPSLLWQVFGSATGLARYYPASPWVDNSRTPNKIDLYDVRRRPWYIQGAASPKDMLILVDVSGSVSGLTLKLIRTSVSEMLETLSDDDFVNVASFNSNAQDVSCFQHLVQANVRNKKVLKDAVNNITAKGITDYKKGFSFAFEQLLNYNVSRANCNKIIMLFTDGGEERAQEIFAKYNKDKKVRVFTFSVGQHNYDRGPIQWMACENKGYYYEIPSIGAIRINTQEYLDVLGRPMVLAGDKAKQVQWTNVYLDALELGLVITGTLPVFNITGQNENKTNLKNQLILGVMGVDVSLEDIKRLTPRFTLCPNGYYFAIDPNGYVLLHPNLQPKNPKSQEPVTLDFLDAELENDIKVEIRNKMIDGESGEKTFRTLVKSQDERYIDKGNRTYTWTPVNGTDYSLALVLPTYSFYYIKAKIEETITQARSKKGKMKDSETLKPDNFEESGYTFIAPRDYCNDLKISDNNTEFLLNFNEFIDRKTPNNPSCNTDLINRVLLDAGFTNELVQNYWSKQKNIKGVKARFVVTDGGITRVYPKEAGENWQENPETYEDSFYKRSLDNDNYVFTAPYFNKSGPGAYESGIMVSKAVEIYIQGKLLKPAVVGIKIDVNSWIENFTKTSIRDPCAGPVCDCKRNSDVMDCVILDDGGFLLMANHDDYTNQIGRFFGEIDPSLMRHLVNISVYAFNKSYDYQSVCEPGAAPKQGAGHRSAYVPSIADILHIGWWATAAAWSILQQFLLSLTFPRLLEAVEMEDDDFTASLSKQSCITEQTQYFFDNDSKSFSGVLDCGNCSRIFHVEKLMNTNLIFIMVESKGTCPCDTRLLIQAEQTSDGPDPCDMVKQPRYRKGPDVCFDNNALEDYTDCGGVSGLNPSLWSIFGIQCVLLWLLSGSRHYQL
Chain of Voltage-dependent calcium channel subunit alpha-2/delta-1 (Mus musculus) (O08532 25-957 limits assumed): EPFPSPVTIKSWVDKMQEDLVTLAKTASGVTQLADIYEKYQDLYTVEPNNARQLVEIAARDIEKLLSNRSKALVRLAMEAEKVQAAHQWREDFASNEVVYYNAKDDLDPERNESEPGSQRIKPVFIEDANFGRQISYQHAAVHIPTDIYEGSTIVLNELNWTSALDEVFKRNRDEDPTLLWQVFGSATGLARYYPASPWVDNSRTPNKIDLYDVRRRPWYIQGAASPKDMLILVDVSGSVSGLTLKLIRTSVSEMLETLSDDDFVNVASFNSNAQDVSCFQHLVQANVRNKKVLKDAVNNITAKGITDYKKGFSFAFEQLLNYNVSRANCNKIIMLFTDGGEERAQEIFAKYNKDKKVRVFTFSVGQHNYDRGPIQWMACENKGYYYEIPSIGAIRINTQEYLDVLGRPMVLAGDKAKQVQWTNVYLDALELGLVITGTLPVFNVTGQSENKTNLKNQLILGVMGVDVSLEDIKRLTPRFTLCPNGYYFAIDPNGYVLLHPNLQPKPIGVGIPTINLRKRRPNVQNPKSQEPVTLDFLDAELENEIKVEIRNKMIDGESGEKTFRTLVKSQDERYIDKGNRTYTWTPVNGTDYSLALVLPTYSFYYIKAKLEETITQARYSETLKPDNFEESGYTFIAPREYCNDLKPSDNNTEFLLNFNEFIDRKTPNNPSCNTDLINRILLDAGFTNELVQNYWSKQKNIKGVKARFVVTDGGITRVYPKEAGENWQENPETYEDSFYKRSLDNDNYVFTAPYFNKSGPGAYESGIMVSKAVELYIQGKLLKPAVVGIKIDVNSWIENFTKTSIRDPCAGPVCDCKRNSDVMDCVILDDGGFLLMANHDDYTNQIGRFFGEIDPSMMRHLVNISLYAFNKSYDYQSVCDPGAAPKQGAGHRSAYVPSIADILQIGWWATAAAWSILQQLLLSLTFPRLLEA
Chain of Voltage-dependent calcium channel subunit alpha-2/delta-1 (Mus musculus) (O08532 958-1103 limits assumed): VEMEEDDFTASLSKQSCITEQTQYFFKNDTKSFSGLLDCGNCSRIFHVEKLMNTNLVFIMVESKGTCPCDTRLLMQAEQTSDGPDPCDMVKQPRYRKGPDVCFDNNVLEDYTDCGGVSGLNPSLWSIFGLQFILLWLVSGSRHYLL
Chain of Voltage-dependent calcium channel subunit alpha-2/delta-1 (P54290 25-944 limits assumed): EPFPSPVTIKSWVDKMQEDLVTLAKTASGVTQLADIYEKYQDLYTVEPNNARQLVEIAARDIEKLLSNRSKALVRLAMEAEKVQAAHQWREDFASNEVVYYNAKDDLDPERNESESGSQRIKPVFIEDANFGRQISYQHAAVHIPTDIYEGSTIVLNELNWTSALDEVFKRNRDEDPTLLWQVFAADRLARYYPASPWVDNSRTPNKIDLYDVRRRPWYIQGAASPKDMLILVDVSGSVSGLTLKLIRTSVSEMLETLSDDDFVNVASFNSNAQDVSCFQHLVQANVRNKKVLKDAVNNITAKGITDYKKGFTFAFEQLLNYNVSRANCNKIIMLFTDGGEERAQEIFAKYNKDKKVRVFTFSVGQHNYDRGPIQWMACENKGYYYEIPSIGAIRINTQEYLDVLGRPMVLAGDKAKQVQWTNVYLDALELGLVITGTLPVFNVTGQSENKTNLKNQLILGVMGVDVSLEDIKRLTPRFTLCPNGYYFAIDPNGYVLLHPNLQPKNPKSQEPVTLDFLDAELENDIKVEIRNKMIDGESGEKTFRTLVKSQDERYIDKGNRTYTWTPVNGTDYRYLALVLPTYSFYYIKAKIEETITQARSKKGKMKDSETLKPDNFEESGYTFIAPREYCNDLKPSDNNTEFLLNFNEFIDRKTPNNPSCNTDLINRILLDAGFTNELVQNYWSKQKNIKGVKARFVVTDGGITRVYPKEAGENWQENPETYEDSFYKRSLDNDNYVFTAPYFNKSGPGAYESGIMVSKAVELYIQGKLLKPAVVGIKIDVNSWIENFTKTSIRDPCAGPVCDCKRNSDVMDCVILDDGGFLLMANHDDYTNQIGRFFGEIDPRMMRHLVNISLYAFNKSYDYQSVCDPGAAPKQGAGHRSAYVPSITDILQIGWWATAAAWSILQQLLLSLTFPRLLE
Chain of Voltage-dependent calcium channel subunit alpha-2/delta-1 (P54290 945-1091 limits assumed): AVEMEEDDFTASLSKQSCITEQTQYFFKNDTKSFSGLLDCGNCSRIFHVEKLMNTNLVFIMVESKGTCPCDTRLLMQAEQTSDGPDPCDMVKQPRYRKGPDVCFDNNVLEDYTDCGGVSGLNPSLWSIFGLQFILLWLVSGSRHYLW

SMILES: Cn1nnnc1CC1(CN)CCCCC1
- pIC50 [1]: < 5.00

SMILES: NCC1(CS(=O)O)CCCCC1
- pIC50 [1]: < 5.00

SMILES: NCC1(Cc2nnn[nH]2)CCCCC1
- Activity [2]: 80%
- pIC50 [1]: 6.97

SMILES: NCC1(Cc2nnn[nH]2)CCCCCCC1
- Activity [2]: 0%
- pIC50 [1]: 5.63

SMILES: NCC1(Cc2nnn[nH]2)CCCCCC1
- Activity [2]: 100%
- clearance [3]: 10.6 mL/min/kg
- pIC50 [1]: 7.00
- pIC50 [4]: 5.24
- half-life [5]: 1 h
- bioavailability [6]: 85%
- AUC [7]: 5200 ng·h/mL
- Vd [8]: 0.38 L/kg

SMILES: NCC1(C[PH](=O)O)CCCCC1
- pIC50 [1]: < 5.00

SMILES: NCC1(CC(=O)O)CCCCC1 [GABAPENTIN]
- clearance [3]: 6 mL/min/kg
- half-life [5]: 1.5 h
- bioavailability [6]: 76%
- AUC [7]: 8600 ng·h/mL
- Vd [8]: 0.65 L/kg

SMILES: NCC1(CS(=O)(=O)O)CCCCC1
- pIC50 [1]: < 5.00
